The results in this text go back to ChEMBL document CHEMBL3112558 (Bioorg Med Chem Lett, 2014).

pEC50, pIC50: −log10 of the molar value.

The subject of series [1] is Human immunodeficiency virus 1. Nature of the series: Antiviral activity against HIV1 by cell based assay. Type of series: functional, organism-based.
In series [2] the target is Cytochrome P450 3A4 (Homo sapiens, UniProt P08684). In words: Inhibition of human CYP3A4-mdiated midazolam 1'-hydroxylase activity.
For series [3], the target named is Protease (Human immunodeficiency virus 1, UniProt Q9YQ12). In words: Inhibition of HIV-1 protease.
Protease, sequence (Q9YQ12 whole entry): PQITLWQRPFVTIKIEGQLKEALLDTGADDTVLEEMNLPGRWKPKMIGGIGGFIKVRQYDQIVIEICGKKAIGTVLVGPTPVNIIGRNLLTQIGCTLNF
Series [4] addresses Cytochrome P450 2D6 (Homo sapiens, UniProt P10635). In words: Inhibition of human CYP2D6.
Series [5] addresses T1, Cytochrome P450 1A2 (Homo sapiens, UniProt P05177).
T1 sequence (P05177 whole entry): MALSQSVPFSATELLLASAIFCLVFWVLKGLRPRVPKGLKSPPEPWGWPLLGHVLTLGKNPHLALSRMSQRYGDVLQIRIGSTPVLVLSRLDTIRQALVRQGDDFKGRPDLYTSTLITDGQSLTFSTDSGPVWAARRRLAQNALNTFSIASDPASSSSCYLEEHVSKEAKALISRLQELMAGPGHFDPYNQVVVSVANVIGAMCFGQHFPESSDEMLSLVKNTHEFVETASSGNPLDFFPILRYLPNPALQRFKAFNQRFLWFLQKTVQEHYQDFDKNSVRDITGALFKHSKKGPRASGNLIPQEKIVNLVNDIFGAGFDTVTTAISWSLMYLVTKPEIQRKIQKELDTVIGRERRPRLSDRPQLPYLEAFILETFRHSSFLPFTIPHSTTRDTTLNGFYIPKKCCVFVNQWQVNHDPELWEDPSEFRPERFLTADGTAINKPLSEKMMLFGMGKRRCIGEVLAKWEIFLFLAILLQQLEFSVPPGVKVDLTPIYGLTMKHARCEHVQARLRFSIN
Nature of the series: Inhibition of human CYP1A2.

For series [6], the target named is Cytochrome P450 2C19 (Homo sapiens, UniProt P33261). Nature of the series: Inhibition of human CYP2C19.
Cytochrome P450 2C19, sequence (P33261 whole entry): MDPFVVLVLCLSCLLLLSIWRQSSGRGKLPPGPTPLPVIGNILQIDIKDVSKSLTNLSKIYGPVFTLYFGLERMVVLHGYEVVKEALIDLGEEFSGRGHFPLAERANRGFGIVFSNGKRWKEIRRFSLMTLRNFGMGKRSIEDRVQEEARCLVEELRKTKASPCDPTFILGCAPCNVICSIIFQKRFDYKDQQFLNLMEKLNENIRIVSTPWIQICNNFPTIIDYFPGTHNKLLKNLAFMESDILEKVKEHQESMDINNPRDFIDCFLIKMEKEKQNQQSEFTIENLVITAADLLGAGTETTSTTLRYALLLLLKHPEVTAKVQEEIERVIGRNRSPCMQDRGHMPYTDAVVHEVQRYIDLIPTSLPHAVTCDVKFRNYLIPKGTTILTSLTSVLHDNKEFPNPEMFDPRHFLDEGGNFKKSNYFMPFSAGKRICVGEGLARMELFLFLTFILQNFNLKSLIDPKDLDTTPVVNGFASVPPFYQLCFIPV
Series [7] has as its target Cytochrome P450 2C9 (Homo sapiens, UniProt P11712). Nature of the series: Inhibition of human CYP2C9.
Series [8] has as its target CYP3A4 (Homo sapiens, UniProt P08684). Nature of the series: Ratio of compound IC50 to ritonavir IC50 for human CYP3A4-mdiated midazolam 1'-hydroxylase activity. Type of series: ADME. The note with it: probe midazolam, read-out: Ratio IC50.

Cytochrome P450 2D6, sequence (P10635 whole entry): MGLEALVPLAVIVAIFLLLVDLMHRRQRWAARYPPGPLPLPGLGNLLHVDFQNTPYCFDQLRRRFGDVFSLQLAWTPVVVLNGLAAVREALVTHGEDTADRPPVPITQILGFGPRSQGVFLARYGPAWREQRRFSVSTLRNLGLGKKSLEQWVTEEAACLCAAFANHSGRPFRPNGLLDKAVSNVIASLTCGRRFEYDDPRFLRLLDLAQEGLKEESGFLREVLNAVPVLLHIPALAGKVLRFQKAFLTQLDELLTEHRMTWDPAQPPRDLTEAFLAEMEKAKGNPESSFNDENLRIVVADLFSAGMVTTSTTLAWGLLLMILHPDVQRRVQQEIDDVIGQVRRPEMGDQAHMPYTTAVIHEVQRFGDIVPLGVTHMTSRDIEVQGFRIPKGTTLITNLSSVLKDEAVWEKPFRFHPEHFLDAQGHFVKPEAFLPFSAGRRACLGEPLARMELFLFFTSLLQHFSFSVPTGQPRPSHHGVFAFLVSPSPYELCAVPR
Cytochrome P450 2C9, sequence (P11712 whole entry): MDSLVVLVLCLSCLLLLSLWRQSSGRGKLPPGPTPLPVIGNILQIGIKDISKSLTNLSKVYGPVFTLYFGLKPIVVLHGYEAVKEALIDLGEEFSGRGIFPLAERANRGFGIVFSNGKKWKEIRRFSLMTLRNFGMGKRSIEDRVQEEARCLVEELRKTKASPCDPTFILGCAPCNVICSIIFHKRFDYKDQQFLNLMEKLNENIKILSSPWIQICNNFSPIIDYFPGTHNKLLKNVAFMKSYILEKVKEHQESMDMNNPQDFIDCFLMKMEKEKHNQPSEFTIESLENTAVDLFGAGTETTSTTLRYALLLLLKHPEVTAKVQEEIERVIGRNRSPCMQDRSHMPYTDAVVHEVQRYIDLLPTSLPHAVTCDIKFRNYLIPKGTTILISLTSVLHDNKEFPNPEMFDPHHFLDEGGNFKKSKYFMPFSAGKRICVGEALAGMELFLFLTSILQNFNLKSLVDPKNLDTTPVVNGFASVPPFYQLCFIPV
Cytochrome P450 3A4, sequence (P08684 whole entry): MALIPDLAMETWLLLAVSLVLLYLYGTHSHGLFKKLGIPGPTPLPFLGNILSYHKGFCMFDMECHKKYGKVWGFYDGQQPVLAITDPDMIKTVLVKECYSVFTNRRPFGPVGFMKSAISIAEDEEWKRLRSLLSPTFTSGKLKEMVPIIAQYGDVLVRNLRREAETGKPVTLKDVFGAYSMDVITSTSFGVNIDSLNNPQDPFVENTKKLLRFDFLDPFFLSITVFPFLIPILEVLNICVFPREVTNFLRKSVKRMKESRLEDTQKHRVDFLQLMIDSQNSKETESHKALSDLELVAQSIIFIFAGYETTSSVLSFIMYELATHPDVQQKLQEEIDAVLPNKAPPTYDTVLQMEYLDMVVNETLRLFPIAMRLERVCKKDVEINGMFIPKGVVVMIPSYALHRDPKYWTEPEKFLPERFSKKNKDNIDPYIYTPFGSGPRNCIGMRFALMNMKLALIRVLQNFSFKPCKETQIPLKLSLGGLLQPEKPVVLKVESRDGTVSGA
CYP3A4, sequence (P08684 whole entry): as above

In series [1], `CC(C)c1nc(CN(C)C(=O)N[C@H](C(=O)N[C@@H](Cc2ccccc2)C[C@H](O)[C@H](Cc2ccccc2)NC(=O)OCc2cncs2)C(C)C)cs1` [RITONAVIR] had a pEC50 of 7.30.

On to `CN(Cc1cncs1)C(=O)NCCC(=O)N[C@H](CC[C@H](Cc1ccccc1)NC(=O)OCc1cncs1)Cc1ccccc1`, for which the pEC50 in series [1] was 5.60. Also, the pIC50 in series [2] is 6.89.

Turning to `CC(C)c1nc(CN(C)C(=O)NC(CN(C)C)C(=O)N[C@H](CC[C@H](Cc2ccccc2)NC(=O)OCc2cncs2)Cc2ccccc2)cs1` (some centres not stated), the pEC50 in series [1] was 5.52.

In turn, `CC(C)c1nc(CN(C)C(=O)N[C@@H](CC(=O)O)C(=O)N[C@H](CC[C@H](Cc2ccccc2)NC(=O)OCc2cncs2)Cc2ccccc2)cs1` showed a pEC50 in series [1] of 5.00. Further, the pIC50 in series [3] is 8.00.

With `CC(C)[C@H](NC(=O)N(C)Cc1cscn1)C(=O)N[C@H](CC[C@H](Cc1ccccc1)NC(=O)OCc1cncs1)Cc1ccccc1`, in series [1], the pEC50 was 6.10. Also, the pIC50 in series [2] is 6.85; in series [3] it was 6.62.

The molecule `O=C(N[C@@H](CC[C@@H](Cc1ccccc1)NC(=O)[C@H](CO)NC(=O)N(Cc1cncs1)C1CC1)Cc1ccccc1)OCc1cncs1` had a pEC50 in series [1] below 4.52. For the same molecule, the pIC50 in series [3] is below 4.52.

Regarding `CC(C)c1nc(CN(C)C(=O)N[C@@H](CCN(C)C)C(=O)N[C@H](CC[C@H](Cc2ccccc2)NC(=O)OCc2cncs2)Cc2ccccc2)cs1`, in series [1], the pEC50 is 4.70. This molecule also had a pIC50 in series [3] below 4.52.

In the case of `CC(=O)NCC[C@H](NC(=O)N(C)Cc1csc(C(C)C)n1)C(=O)N[C@@H](CC[C@@H](Cc1ccccc1)NC(=O)OCc1cncs1)Cc1ccccc1`, the pEC50 in series [1] was below 4.52. Moreover, the pIC50 in series [4] was 6.10; in series [5], below 4.60; in series [6], below 4.60; in series [7] it was 4.81; in series [3], below 4.52.

In turn, `CC(C)c1nc(CN(C)C(=O)N[C@@H](Cc2cnc[nH]2)C(=O)N[C@@H](CC[C@@H](Cc2ccccc2)NC(=O)OCc2cncs2)Cc2ccccc2)cs1` had a pEC50 in series [1] below 4.52. The pIC50 in series [4] is 6.40; in series [5] it was 4.82; in series [6], 5.66; in series [7] it was 5.33; in series [3], below 4.52.

In series [1], `CC(C)[C@H](NC(=O)N(C)Cc1cscn1)C(=O)N[C@@H](CC[C@@H](Cc1ccccc1)NC(=O)OCc1cncs1)Cc1ccccc1` gave a pEC50 below 4.52. Moreover, the pIC50 in series [2] was 6.92; in series [3] it was below 4.52.

Regarding `CNCC[C@H](NC(=O)N(C)Cc1csc(C(C)C)n1)C(=O)N[C@H](CC[C@H](Cc1ccccc1)NC(=O)OCc1cncs1)Cc1ccccc1`, the pEC50 in series [1] was below 4.52. For the same molecule, the pIC50 in series [3] is below 4.52.

On to `CC(C)c1nc(CN(C)C(=O)N[C@@H](CCNS(C)(=O)=O)C(=O)N[C@H](CC[C@H](Cc2ccccc2)NC(=O)OCc2cncs2)Cc2ccccc2)cs1`, for which, in series [1], the pEC50 is below 4.52. This molecule also showed a pIC50 in series [3] of 5.10.

In the case of `CC(C)c1nc(CN(C)C(=O)N[C@@H](CCCCN)C(=O)N[C@H](CC[C@H](Cc2ccccc2)NC(=O)OCc2cncs2)Cc2ccccc2)cs1`, in series [1], the pEC50 was below 4.52. The same molecule gave a pIC50 in series [3] below 4.52.

Consider `CC(C)c1nc(CN(C)C(=O)N[C@H](CCN2CCOCC2)C(=O)N[C@H](CC[C@H](Cc2ccccc2)NC(=O)OCc2cncs2)Cc2ccccc2)cs1`, for which the pEC50 in series [1] was below 4.52. Moreover, the pIC50 was 5.51 in series [4], below 4.60 in series [5], 5.89 in series [6] and below 4.52 in series [3].

`CC(C)c1nc(CN(C)C(=O)N[C@@H](CCN)C(=O)N[C@H](CC[C@H](Cc2ccccc2)NC(=O)OCc2cncs2)Cc2ccccc2)cs1` had a pEC50 in series [1] below 4.52. Besides, the pIC50 in series [4] is 6.10; in series [5], below 4.60; in series [6], below 4.60; in series [7], below 4.60; in series [3] it was below 4.52.

In turn, `CC(C)[C@H](NC(=O)N(Cc1cscn1)C1CC1)C(=O)N[C@H](CC[C@H](Cc1ccccc1)NC(=O)OCc1cncs1)Cc1ccccc1` showed a negative-log EC50 (pEC50) in series [1] of 5.40. Moreover, the selectivity ratio in series [8] was 80. The results for the pIC50 in series [2] and in series [3] were above 7.00 and 5.44, respectively.

Molecule `CC(C)c1nc(CN(C)C(=O)N[C@@H](CCO)C(=O)N[C@H](CC[C@H](Cc2ccccc2)NC(=O)OCc2cncs2)Cc2ccccc2)cs1` had a pEC50 in series [1] of 5.57. Moreover, the pIC50 in series [3] was 7.41.

`CC(C)c1nc(CN(C)C(=O)N[C@@H](Cn2cccn2)C(=O)N[C@H](CC[C@H](Cc2ccccc2)NC(=O)OCc2cncs2)Cc2ccccc2)cs1` had a pEC50 in series [1] of 5.30. The pIC50 in series [3] was 7.52.

Molecule `CC(=O)NCC[C@H](NC(=O)N(C)Cc1csc(C(C)C)n1)C(=O)N[C@H](CC[C@H](Cc1ccccc1)NC(=O)OCc1cncs1)Cc1ccccc1` showed a pEC50 in series [1] of 4.74. Further, in series [3], the pIC50 was 5.70.

Consider `CC(C)c1nc(CN(C(=O)N[C@H](C(=O)N[C@H](CC[C@H](Cc2ccccc2)NC(=O)OCc2cncs2)Cc2ccccc2)C(C)C)C2CC2)cs1`, for which, in series [1], the pEC50 is 6.12. The pIC50 in series [2] is 6.68; in series [3] it was 6.26.

In series [1], `CC(C)c1nc(CN(C)C(=O)N[C@@H](CC(N)=O)C(=O)N[C@H](CC[C@H](Cc2ccccc2)NC(=O)OCc2cncs2)Cc2ccccc2)cs1` showed a pEC50 of 6.00. In addition, the pIC50 in series [3] is 6.84.

`CC(C)c1nc(CN(C)C(=O)N[C@@H](CO)C(=O)N[C@@H](CC[C@@H](Cc2ccccc2)NC(=O)OCc2cncs2)Cc2ccccc2)cs1`: the pEC50 in series [1] was below 4.52. In series [3], this molecule gave a pIC50 below 4.52.

On to `CC(C)[C@H](NC(=O)N(C)Cc1cncs1)C(=O)N[C@H](CC[C@H](Cc1ccccc1)NC(=O)OCc1cncs1)Cc1ccccc1`, for which the pEC50 in series [1] is 6.15. The figures for the pIC50 in series [2] and in series [3] were 7.10 and 6.41, respectively.

For the molecule `CC(C)c1nc(CN(C)C(=O)N[C@@H](CO)C(=O)N[C@H](CC[C@H](Cc2ccccc2)NC(=O)OCc2cncs2)Cc2ccccc2)cs1`, in series [1], the pEC50 was 5.82. Also, the pIC50 in series [3] is 7.30.

For the molecule `CC(C)c1nc(CN(C)C(=O)N[C@@H](CCN2CCOCC2)C(=O)N[C@H](CC[C@H](Cc2ccccc2)NC(=O)OCc2cncs2)Cc2ccccc2)cs1` [COBICISTAT], the pEC50 in series [1] was below 4.52. The negative-log IC50 (pIC50) in series [4] is 5.04; in series [5], below 4.60; in series [6], below 4.60; in series [3] it was below 4.52.

`CN(Cc1cncs1)C(=O)N[C@@H](CO)C(=O)N[C@H](CC[C@H](Cc1ccccc1)NC(=O)OCc1cncs1)Cc1ccccc1` gave a pEC50 in series [1] of 4.92. The molecule further gave a pIC50 in series [3] of 5.37.

`CC(C)c1nc(CN(C)C(=O)N[C@@H](Cc2c[nH]cn2)C(=O)N[C@H](CC[C@H](Cc2ccccc2)NC(=O)OCc2cncs2)Cc2ccccc2)cs1` gave a pEC50 in series [1] below 5.00. The same molecule had a pIC50 in series [3] of 5.52.

In the case of `CC(C)c1nc(CN(C(=O)N[C@@H](CO)C(=O)N[C@H](CC[C@H](Cc2ccccc2)NC(=O)OCc2cncs2)Cc2ccccc2)C2CC2)cs1`, the pEC50 in series [1] is 5.60. In series [3], this molecule showed a pIC50 of 5.85.

With `O=C(N[C@H](CC[C@H](Cc1ccccc1)NC(=O)[C@H](CO)NC(=O)N(Cc1cncs1)C1CC1)Cc1ccccc1)OCc1cncs1`, the pEC50 in series [1] was 4.70. This molecule also gave a pIC50 in series [3] of 4.71.

`COC[C@H](NC(=O)N(C)Cc1csc(C(C)C)n1)C(=O)N[C@H](CC[C@H](Cc1ccccc1)NC(=O)OCc1cncs1)Cc1ccccc1` had a pEC50 in series [1] of 6.19.

In series [1], `CC(C)c1nc(CN(C)C(=O)N[C@@H](COCc2ccccc2)C(=O)N[C@H](CC[C@H](Cc2ccccc2)NC(=O)OCc2cncs2)Cc2ccccc2)cs1` had a pEC50 below 4.52. Further, in series [3], the pIC50 was 4.93.

For the molecule `CC(C)c1nc(CN(C)C(=O)N[C@@H](Cc2cn(C)cn2)C(=O)N[C@H](CC[C@H](Cc2ccccc2)NC(=O)OCc2cncs2)Cc2ccccc2)cs1`, in series [1], the pEC50 is below 4.52. In series [3], this molecule showed a pIC50 below 4.52.

Molecule `Cc1nc(CN(C)C(=O)N[C@H](C(=O)N[C@H](CC[C@H](Cc2ccccc2)NC(=O)OCc2cncs2)Cc2ccccc2)C(C)C)cs1` showed a pEC50 in series [1] of 6.40. Also, in series [3], the pIC50 is 7.46.
